Data: US5792784A, “Coupling product obtained from histamine and an amino acid” (Babizhayev; Marc, priority 1993, dated 1998)

What was measured:
[1] = Inhibition of deoxyribose oxidation (superoxide from xanthine oxidase/hypoxanthine; TBA/MDA detection); type: biochemical; details: 10 mM
Source text: Several in vitro tests have been carried out in order to reveal the evoked different antioxidant properties.
Experimental procedure described by J. M. C. Gutteridge in Biochemistry Journal, vol. 224 (1984), p. 761-767: oxidation substrate: deoxyribose
Superoxide anions production system: xanthine oxidase/hypoxanthine detection: thiobarbituric acid/malondialdehyde (MDA)

[2] = Inhibition of linoleic acid peroxidation (Fe/ascorbic acid; TBA/MDA); type: biochemical; details: 25 mM (mixture: 25 mM each), linoleic acid 0.25 mg/ml; for MDA per mg of linoleic acid: control 7.95
Experimental: oxidation substrate: linoleic acid (0.25 mg/ml), free radicals generating system: Fe/ascorbic acid detection: thiobarbituric acid (TBA)/malondialdehyde (MDA)

[3] = "Peroxidase" type activity on liposome model: reduction of phosphatidylcholine hydroperoxides (PC-OOH); type: biochemical
Experimental: The "peroxidase" type activity also has been evaluated on a "liposome" model. The phosphatidylcholine hydroperoxides (PC-OOH) are prepared according to a similar procedure to the one already described for the linoleic acid monoperoxide.
The peroxide species reduction is followed by dosing the remaining peroxides according to the method laid down by Hicks M and Gebicki J. M.--Anal. Biochem, vol 99, (1979), p. 249-253.

[4] = Inhibition of phosphatidylcholine liposome peroxidation (Fe/ascorbic acid; TBA/MDA); details: for MDA per mg of phospholipids: control 4.4
Source text: oxidation substrate: phosphatidylcholine liposomes
free radicals generating system : Fe/ascorbic acid detection: thiobarbituric acid (TBA)/malondialdehyde (MDA)

[5] = "Peroxidase" activity: reduction of 13-monoperoxide of linoleic acid (L-OOH); type: biochemical; details: 10 mM; 13-monoperoxide linoleic acid 0.5 mM; control 36.7
Experimental: Lipid peroxides evolution is monitored with the help of 3 methods:
1°) spectrophotometric measure at 233 nm
(O. S. Privett, C. Nickell, W. O. Lundberg, and P. D. Bayer, dans J.Am.Oil Chem. Soc, Vol 32 (1955), P.505-511
2°) Iodometric dosage: M.Hicks' and J. M. Gebicki's method, Analytical Biochemistry, vol 99 (1979), p 249-253.
3°) Chromatography on silica gel plate (hexane/ether/acetic acid 8/7/0.1).
(a) 13-monoperoxide linoleic acid 0.5 mM without reducing agent (preparation according to H. W. Gardner's method Lipids, Vol.10 (1975), p. 248-252).

[6] = Tests with peroxidized compounds: reducing behaviour; type: biochemical
[7] = tested on: gastric ulcer; details: rats with limited food-intake-time; cited from earlier work
[8] = tested on: murine splenocytes; experiment: Immunostimulating activity in vitro on murine splenocytes (tritiated thymidine incorporation); type: cell-based; details: average of three measures
Source text: The procedure is extracted from: J. Kunert-Radek, H. Stepien, K. Lyson and M. Pawlikowski--"Effects of calcium channel modulators on the proliferation of mouse spleen lymphocytes in vitro"--Agents and Actions, vol. 29, Nos 3-4 (1990), p. 254-258.
The cell proliferation is followed by the measurement of the extent of incorporation of tritriated thymidine in the cells, expressed in numbers of desintegrations per mn, deducted from the background.
The results obtained with an immunostimulator of reference, concanavaline A, are given as a comparison.
The immunostimulating effect is expressed by an Index of Stimulation (IS) [formula]
The given values are corresponding to the average of three measures.

[9] = tested on: cataract; experiment: Cataract patients: modification of the visual acuity at the end of 24 months; type: in vivo; details: 1% in isotonic saline, only one daily local dose
Source text: This example concerns the utilization of the β-alanyl-histamine to treat patients affected by cataract.
The study has been designed for a prospective evaluation of the modifications of the lens opacity in patients effected by cataract. All the patients have undergone an initial ophtalmic examination. It involved the making of the medical historical record of the patient, a measurement of the visual acuity at a maximum correction, direct or indirect ophtalmoscopies, an evaluation of the opacities with the slit lamp, a clinical grading of the lens after maximal mydriasis, a classification according to the cataract type, and lens pictures by retroillumination. Moreover, samples of blood have been taken at the beginning, then in follow-up for chemical analysis.
The general view has allowed to establish the initial state of patients before the treatment (definition of "base line").
Follow-up of ophtalmic examinations were carried out every two weeks for two months, then every month. They included maximum visual acuity after correction, direct or indirect ophtalmoscopies, a slit lamp examination, and after a maximum dilation of the pupil (excluding patients with primary open-angle glaucoma), a clinical lens grading, a classification of the cataract. Pictures also have been taken on lens observed by retroillumination or with the slit lamp.
In this study, differents groups have been determined, to be seen:
A group reference 1, with non-treated patients (5 patients, 7 eyes) […]
A group 3, has been submitted to the same treatment than the group 2, stimulated by an "attack type of treatment" during the first two weeks: 2 subcon-junctival junctival injections twice a week of 0.10 to 0.15 ml of the saline defined for the group 2 (3 patients, 4 eyes).
A group 4, which was given a local dose by way of an eye drop of isotonic saline twice a day (5 patients 7 eyes), the group 4 being like the group 1, a reference group.
Following the protocol described above, we determine the values of the optic density of the lens according to its opacity as well as the visual acuity, and the whole for 24 months. Considering these two parameters, we obtain tables giving results concerning the modification of the visual acuity at the end of 24 months in Tables 1 and 2, and the results concerning the modification of the visual opacity at the end of 24 months in Tables 3 and 4.

[10] = Protection of micro seaweed oil against oxidation (malondialdehyde dosage, one month); details: 20 mmol per L oil
Source text: The pseudo-dipeptides products also can be used to protect cosmetic oils easily oxidizable, rich in unsaturated fatty acids formulated in cosmetic or dietetic.
It has been necessary to add 15 to 25 mmol of pseudo-dipeptides products of the invention per liter of oil according to the following formulation: […]
20 mmol of acetylated b-alanyl-histamine oil extracted from micro seaweed cultured in sea water very rich in unsaturated fatty acids, including EPA qs for 1L.
We have compared the ageing of this protected oil to the non-protected oil at the end of a month by the malondialdehyde dosage.

[11] = tested on: gingival and buccal mucosa; experiment: Repairing activity on the mucosa in stomatitis gingivitis; type: in vivo, patients; details: aqueous gel 0.28%
Source text: We have been able to study this action on stomatitis gingivitis of various origin (dental prothesis badly adapted, the taking by mistake of a corrosive liquid, and colbaltotherapy of the oropharyngeal aera.
In all the cases, the causes of deterioration of the gingival and buccal mucosa have been stopped. Over and above the classical treatments that were adapted and systematically given, was given to 50% of the patients, an aqueous orange flavour gel containing 0.28% of N-acetyl-3-phenyl-3-aminopropionyl-histamine.

NCCC(=O)N[C@@H](Cc1c[nH]cn1)C(=O)O [L-carnosine, β-alanyl-histidine, reference compound]
% inhibition of deoxyribose oxidation [1]: 37% | % inhibition [2]: 59% | MDA per mg of linoleic acid [2]: 3.24 mol MDA per mg of linoleic aci | number of moles of PC-OOH reduced/initial number of moles of PC/hour ([3]; 10 mM): 3.16 × 10^-3 moles of PC-OOH reduced/initia | number of moles of PC-OOH reduced/initial number of moles of PC/hour ([3]; 25 mM): 3.65 × 10^-3 moles of PC-OOH reduced/initia | MDA per mg of phospholipids ([4]; 10 mM): 2.0 mol MDA per mg of phospholipid

NCCc1c[nH]cn1 [Histamine, histamine]
% inhibition [2]: -32% | MDA per mg of linoleic acid [2]: 10.15 mol MDA per mg of linoleic aci | % inhibition ([4]; 1 M (so in the source)): -45% | MDA per mg of phospholipids ([4]; 1 M (so in the source)): 6.4 mol MDA per mg of phospholipid | % inhibition ([4]; 10 M (so in the source)): -63% | MDA per mg of phospholipids ([4]; 10 M (so in the source)): 6.8 mol MDA per mg of phospholipid

N[C@@H](Cc1c[nH]cn1)C(=O)O [Histidine]
% inhibition ([4]; 1 mM): -48% | MDA per mg of phospholipids ([4]; 1 mM): 6.6 mol MDA per mg of phospholipid

NCCC(=O)O [β-alanine]
% inhibition [2]: 0% | MDA per mg of linoleic acid [2]: 7.91 mol MDA per mg of linoleic aci

[BH4-].[Na+] [NaBH4, sodium borohydride, reference compound]
"peroxidase" activity [5]: 312.5 mol of L-OOH reduced/hour | reducing behaviour towards peroxidized compounds [6]: inhibits in an identical way the reaction of degradation

N- (3-aminopropionyl)--L-histidinato zinc [Z-103]
gastric ulcer treatment [7]: good results

concanavaline A [reference compound]
Index of Stimulation (IS) ([8]; 2.5 μg/ml): 4.8 | Index of Stimulation (IS) ([8]; 5 μg/ml): 25.1 | Index of Stimulation (IS) ([8]; 10 μg/ml): 20.5 | Index of Stimulation (IS) ([8]; 25 μg/ml): 12.6

CC(=O)NCCC(=O)NCCc1c[nH]cn1 [N-acetyl-β-alanyl-histamine]
results of eye drop treatment versus those previously obtained [9]: identical to the ones previously obtained | protection against oxidation (malondialdehyde dosage) [10]: proves well the activity of the acetylated-β-alanyl-histamine in the protection against oxidation

CC(=O)NC(CC(=O)NCCc1c[nH]cn1)c1ccccc1 (stereo not shown) [N-acetyl-3-phenyl-3-aminopropionyl-histamine]
tolerance [11]: excellent tolerance

c1c[nH]cn1 [Imidazole]
% inhibition [2]: 11% | MDA per mg of linoleic acid [2]: 6.95 mol MDA per mg of linoleic aci
